# Laboratory results published in PMC6251916, “CKD-506, a novel HDAC6-selective inhibitor, improves renal outcomes and survival in a mouse model of systemic lupus erythematosus” (Scientific Reports, 2018).
# Tested on: NZB/W F1 female mice
# Assay: Murine SLE model: survival, severe proteinuria, UP/C
# Type: in vivo, mouse
# Conditions: for Survival rate at the end of the study: 42-weeks of age; for incidence of severe proteinuria (urine protein >300 mg/dl): 42 weeks of age
# Protocol: Survival had been monitored until 42 weeks of age.
# During the experiments, urine protein levels had been measured every 2 weeks. Fresh urine was collected by performing abdominal massages. Urine protein was measured with the Coomassie Brilliant Blue method as described in our previous study. Urine creatinine was measured using a DRI-CHEM 3000 Colorimetric analyzer (Fujifilm, Tokyo, Japan) with the urine diluted in deionized water (1:100 dilution).
substance,measurement,setting,value
CKD-506,Survival rate at the end of the study,group CKD10: 10 mg/kg/day i.p.,73.3%
same,incidence of severe proteinuria (urine protein >300 mg/dl),group CKD10: 10 mg/kg/day i.p.,13.3%
same,Survival rate at the end of the study,group CKD30: 30 mg/kg/day i.p.,93.3%
same,incidence of severe proteinuria (urine protein >300 mg/dl),group CKD30: 30 mg/kg/day i.p.,6.7%
same,Survival rate at the end of the study,group CKD50: 50 mg/kg/day i.p.,93.3%
same,incidence of severe proteinuria (urine protein >300 mg/dl),group CKD50: 50 mg/kg/day i.p.,0%
same,urine protein/urine creatinine (UP/C),"group CKD50, 42 weeks, not significantly different from other groups",lowest UP/C mean value
